Each block holds one molecule with its values, some of them ahead of it.
Legend:
[1] = target: T1, Serine/threonine-protein kinase D1 (Homo sapiens) (UniProt Q15139); assay: Selectivity interaction (KinomeScan (DiscoverX)) EUB0001049a PRKD1; settings: at 1 µM
T1 sequence (whole entry): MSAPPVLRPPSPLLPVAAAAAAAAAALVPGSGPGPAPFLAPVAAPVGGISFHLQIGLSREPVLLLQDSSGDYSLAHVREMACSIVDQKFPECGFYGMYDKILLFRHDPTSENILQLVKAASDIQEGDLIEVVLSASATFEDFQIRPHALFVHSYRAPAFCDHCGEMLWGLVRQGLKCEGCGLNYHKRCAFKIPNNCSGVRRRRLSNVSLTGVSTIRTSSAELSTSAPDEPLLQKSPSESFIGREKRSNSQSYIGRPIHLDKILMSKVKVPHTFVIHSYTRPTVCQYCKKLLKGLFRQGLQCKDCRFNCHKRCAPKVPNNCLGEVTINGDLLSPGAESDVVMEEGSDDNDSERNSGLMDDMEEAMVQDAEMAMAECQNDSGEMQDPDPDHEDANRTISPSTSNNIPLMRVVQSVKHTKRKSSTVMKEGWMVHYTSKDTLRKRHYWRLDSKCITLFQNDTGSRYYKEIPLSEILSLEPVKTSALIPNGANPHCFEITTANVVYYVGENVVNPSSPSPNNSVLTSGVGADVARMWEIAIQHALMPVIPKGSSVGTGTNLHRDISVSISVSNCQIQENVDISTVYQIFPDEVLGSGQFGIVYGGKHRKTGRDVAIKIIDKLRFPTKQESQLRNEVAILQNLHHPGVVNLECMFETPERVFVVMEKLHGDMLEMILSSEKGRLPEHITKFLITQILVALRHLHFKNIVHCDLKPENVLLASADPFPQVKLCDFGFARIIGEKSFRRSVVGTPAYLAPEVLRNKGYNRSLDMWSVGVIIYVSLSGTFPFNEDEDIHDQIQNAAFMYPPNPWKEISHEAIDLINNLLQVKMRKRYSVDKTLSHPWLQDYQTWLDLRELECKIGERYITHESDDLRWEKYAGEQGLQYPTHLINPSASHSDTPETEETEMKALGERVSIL

[2] = target: Tyrosine-protein kinase ABL1 (Homo sapiens, UniProt P00519); assay: Selectivity interaction (ActivX KiNativ screen (kinase selectivity in THP-1 cell lysates)) EUB0000639a ABL1; type: subcellular; settings: lysate, at 0.04 µM
Chain of Tyrosine-protein kinase ABL1 (P00519 whole entry): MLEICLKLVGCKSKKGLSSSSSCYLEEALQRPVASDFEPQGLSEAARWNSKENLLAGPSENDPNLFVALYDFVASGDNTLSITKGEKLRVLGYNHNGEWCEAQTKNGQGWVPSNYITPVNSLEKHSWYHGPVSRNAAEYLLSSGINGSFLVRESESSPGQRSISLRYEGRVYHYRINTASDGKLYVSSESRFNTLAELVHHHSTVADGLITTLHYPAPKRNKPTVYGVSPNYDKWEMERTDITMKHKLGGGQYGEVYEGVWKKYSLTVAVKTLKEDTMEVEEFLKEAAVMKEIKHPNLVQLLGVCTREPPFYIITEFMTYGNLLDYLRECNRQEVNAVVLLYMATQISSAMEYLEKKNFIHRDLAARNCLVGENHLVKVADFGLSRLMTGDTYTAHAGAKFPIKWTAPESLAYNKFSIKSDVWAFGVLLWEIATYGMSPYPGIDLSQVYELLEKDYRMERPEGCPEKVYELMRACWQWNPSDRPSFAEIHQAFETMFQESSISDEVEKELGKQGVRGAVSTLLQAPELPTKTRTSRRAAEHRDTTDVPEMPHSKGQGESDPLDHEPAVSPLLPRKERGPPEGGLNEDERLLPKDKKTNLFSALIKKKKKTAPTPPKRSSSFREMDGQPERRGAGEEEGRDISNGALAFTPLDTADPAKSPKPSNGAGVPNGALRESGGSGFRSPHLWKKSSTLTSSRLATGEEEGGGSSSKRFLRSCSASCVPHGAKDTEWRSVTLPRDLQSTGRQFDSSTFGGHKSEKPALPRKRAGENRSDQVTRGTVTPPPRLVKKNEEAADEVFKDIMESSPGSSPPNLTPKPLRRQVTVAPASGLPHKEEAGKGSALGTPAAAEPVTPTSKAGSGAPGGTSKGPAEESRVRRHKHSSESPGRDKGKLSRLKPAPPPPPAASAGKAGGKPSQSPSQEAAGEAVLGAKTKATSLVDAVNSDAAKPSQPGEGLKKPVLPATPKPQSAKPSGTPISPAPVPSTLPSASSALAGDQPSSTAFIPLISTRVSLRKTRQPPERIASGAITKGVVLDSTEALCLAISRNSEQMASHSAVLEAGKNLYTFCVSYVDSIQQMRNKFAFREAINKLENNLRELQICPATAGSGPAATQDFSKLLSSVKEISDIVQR

[3] = target: T2, Inhibitor of nuclear factor kappa-B kinase subunit alpha (Homo sapiens) (UniProt O15111); assay: Selectivity interaction (Adapta Assay) EUB0001632a CHUK; settings: at 10 µM
T2 sequence (whole entry): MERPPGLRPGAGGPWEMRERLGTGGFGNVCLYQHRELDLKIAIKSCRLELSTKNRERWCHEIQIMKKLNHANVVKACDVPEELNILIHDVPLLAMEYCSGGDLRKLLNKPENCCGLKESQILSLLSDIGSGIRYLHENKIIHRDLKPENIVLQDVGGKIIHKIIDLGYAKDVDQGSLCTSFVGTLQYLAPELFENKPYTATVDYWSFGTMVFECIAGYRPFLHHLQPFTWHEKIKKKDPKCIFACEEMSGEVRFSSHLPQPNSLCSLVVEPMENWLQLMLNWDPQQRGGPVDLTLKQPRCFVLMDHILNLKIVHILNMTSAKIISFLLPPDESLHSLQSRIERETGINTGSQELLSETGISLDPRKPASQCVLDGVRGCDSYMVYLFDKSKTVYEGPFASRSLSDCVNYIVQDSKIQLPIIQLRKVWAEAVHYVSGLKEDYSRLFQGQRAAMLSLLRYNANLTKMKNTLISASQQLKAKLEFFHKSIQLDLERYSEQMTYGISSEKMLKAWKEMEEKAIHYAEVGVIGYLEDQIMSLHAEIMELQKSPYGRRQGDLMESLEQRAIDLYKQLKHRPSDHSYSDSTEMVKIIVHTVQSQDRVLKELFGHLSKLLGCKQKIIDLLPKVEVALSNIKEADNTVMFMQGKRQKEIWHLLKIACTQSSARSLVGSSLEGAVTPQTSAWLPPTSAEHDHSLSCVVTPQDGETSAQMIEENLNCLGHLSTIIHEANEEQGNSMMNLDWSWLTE

[4] = target: T3, SNF-related serine/threonine-protein kinase (Homo sapiens) (UniProt Q9NRH2); assay: Selectivity interaction (KinomeScan (DiscoverX)) EUB0000229b SNRK; settings: at 10 µM
T3 sequence (whole entry): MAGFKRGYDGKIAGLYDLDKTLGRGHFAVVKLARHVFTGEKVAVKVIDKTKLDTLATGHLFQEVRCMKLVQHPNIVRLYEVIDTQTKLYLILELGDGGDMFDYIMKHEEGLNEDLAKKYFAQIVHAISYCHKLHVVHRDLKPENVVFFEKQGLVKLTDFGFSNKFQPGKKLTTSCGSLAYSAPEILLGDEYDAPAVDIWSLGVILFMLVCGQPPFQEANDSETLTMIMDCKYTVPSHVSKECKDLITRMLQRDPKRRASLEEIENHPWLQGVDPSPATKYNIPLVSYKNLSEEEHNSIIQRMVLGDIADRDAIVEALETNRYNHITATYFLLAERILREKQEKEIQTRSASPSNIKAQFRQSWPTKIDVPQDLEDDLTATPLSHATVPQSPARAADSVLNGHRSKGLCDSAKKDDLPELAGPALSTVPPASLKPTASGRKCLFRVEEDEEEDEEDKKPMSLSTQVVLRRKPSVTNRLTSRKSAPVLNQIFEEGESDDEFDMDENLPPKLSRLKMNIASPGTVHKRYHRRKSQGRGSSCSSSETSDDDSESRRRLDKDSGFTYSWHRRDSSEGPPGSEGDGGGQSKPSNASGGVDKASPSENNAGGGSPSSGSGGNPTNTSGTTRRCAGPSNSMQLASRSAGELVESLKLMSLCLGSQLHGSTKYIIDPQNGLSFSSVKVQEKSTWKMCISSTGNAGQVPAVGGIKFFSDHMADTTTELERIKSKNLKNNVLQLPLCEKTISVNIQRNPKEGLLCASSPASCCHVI

[5] = target: Calcium/calmodulin-dependent protein kinase type 1D (Homo sapiens) (UniProt Q8IU85); assay: Selectivity interaction (ProQinase) EUB0000171b CAMK1D
Chain of Calcium/calmodulin-dependent protein kinase type 1D (Homo sapiens) (Q8IU85 whole entry, looked up): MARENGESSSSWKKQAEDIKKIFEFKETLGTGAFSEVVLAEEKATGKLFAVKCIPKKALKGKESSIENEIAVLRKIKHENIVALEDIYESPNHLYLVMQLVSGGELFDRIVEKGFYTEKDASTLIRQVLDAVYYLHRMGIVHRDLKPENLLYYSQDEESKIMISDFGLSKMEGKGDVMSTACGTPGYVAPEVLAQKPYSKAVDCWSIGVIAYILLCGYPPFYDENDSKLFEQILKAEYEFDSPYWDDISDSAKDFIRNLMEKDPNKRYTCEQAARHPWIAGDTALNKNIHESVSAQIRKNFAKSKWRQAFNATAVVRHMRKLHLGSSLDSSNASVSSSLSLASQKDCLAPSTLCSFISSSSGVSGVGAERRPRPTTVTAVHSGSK

[6] = target: Dual specificity protein kinase CLK1 (Homo sapiens, UniProt P49759); assay: Selectivity interaction (KinomeScan (DiscoverX)) EUB0000092b CLK1; settings: at 10 µM
Chain of Dual specificity protein kinase CLK1 (P49759 whole entry, looked up): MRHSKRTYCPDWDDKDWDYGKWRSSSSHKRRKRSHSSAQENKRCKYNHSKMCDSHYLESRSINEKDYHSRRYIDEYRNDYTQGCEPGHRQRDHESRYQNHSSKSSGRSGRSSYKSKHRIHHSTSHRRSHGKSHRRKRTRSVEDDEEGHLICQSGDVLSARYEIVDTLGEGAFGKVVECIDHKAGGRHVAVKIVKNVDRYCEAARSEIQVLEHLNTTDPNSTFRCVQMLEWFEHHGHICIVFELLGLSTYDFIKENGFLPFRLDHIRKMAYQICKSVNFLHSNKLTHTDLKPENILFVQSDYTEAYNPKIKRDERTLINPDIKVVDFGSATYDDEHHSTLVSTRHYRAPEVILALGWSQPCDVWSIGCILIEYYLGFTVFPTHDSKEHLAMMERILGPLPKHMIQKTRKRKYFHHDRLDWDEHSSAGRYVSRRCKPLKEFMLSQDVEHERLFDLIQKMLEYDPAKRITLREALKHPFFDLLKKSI

[7] = target: Serine/threonine-protein kinase MARK2 (Homo sapiens) (UniProt Q7KZI7); assay: Selectivity interaction (KinomeScan (DiscoverX)) EUB0000607a MARK2; settings: at 10 µM
Chain of Serine/threonine-protein kinase MARK2 (Homo sapiens) (Q7KZI7 whole entry): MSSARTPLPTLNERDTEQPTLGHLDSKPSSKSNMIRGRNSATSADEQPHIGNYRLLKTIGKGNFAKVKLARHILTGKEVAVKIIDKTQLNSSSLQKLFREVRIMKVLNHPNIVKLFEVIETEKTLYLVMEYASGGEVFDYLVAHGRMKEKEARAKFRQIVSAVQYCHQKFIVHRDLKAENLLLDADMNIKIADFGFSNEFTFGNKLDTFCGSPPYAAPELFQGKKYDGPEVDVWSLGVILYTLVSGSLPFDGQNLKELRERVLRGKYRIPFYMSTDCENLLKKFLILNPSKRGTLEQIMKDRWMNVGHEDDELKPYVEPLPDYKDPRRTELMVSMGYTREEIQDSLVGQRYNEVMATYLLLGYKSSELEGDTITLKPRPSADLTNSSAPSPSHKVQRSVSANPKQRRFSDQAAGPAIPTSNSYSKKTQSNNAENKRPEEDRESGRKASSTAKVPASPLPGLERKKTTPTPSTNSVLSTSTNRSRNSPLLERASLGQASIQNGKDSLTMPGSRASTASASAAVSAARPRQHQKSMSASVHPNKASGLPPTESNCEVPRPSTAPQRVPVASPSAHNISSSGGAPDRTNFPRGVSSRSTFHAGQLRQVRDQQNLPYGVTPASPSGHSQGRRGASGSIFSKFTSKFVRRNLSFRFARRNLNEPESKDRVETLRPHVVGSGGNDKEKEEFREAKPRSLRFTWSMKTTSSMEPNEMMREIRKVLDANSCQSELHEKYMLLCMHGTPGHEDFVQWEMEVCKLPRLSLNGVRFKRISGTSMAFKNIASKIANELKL

SMILES: COc1cc(Nc2nc(C)cc(-c3cnn4nc(OC)ccc34)n2)cc(C(F)(F)F)c1
% of control [1]: 100%

% of inhibition [2]: -16.4%
SMILES: CC[C@@H]1[C@H](F)C(=O)N[C@@H]1COc1nccc2cc(C(N)=O)c(OC)cc12 [ZIMLOVISERTIB]

% of inhibition [3]: 13.7%
SMILES: Cn1cc(-n2cnc3c(NCc4nc5cc(Cl)c(Cl)cc5[nH]4)nc(N4CCOCC4)nc32)cn1

SMILES: COc1cc(N(C)c2ccnc3ccc(C(F)(F)F)cc23)cc(OC)c1OC
% binding [4]: 53%

% of control ([5]; at 1 µM): 90% | % of control ([5]; at 5 µM): 75%
SMILES: C=CC(=O)Nc1cccc(C(=O)Nc2ccc(Nc3cc(-c4[nH]c(SC)nc4C)ccn3)cc2)c1

SMILES: CCC(=O)N1CCN(c2ccc(-n3c(=O)ccc4cnc5ccc(-c6cnc7ccccc7c6)cc5c43)cc2C(F)(F)F)CC1
% of control [6]: 49%

SMILES: CNC(=O)Nc1ccc(-c2nc(N3CC4CCC(C3)O4)c3cnn(C4CCC5(CC4)OCCO5)c3n2)cc1
% of control [7]: 100%
